Test results published in paper PMC9969023 (European Journal of Nuclear Medicine and Molecular Imaging, 2023).

^18F-FDG
SUVmax of paratracheal enlarged lymph nodes (patient 2, PET/MR): 21.50 | SUVmax of thickened esophagus (patient 2, PET/MR, 3.7 MBq/kg, 50 to 70 min P.I.): 28.24 | SUVmax of lung nodule (patient 2, PET/MR, nodule in left lung lower lobe): 1.60 | uptake in peritoneal nodules (patient 3, peritoneal metastases, result in words): mild increased uptake
